pIC50: −log10 of the molar value. Structures can show the parent of a compound that is named as a salt.
Each compound was assayed against T1, human LPA1 (Homo sapiens, UniProt Q92633) (assay: LPA1 functional antagonist assay (calcium flux)). Conditions: CHO cells overexpressing human LPA1; inhibition of calcium flux induced by 10 nM LPA; read-out: hLPA1 IC50.
T1 construct: expressed in transfected cells; host or cells: Chinese hamster ovary (CHO) cells
Assay type: cell-based
Experimental: The effectiveness of compounds of the present invention as LPA1 inhibitors can be determined in an LPA1 functional antagonist assay as follows: • Chinese hamster ovary cells overexpressing human LPA1 were plated overnight (15,000 cells/well) in poly-D-lysine coated 384-well microplates (Greiner bio-one, Cat #781946) in DMEM/F12 medium (Gibco, Cat #11039). Following overnight culture, cells were loaded with calcium indicator dye (AAT Bioquest Inc, Cat #34601) for 30 minutes at 37° C. The cells were then equilibrated to room temperature for 30 minutes before the assay. Test compounds solubilized in DMSO were transferred to 384 well non-binding surface plates (Corning, Cat #3575) using the Labcyte Echo acoustic dispense and diluted with assay buffer [[…] with calcium/magnesium (Gibco Cat #14025-092), 20 mM HEPES (Gibco Cat #15630-080) and 0.1% fatty acid free BSA (Sigma Cat #A9205)] to a final concentration of 0.5% DMSO. Diluted compounds were added to the cells by FDSS6000 (Hamamatsu) at final concentrations ranging from 0.08 nM to 5 μM. and were then incubated for 20 min at room temperature at which time LPA (Avanti Polar Lipids Cat #857130C) was added at final concentrations of 10 nM to stimulate the cells. The compound IC50 value was defined as the concentration of test compound which inhibited 50% of the calcium flux induced by LPA alone. IC50 values were determined by fitting data to a 4-parameter logistic equation (GraphPad Prism, San Diego CA). b. In Vivo Assays LPA Challenge with Plasma Histamine Evaluation.

T1 sequence (Q92633 whole entry): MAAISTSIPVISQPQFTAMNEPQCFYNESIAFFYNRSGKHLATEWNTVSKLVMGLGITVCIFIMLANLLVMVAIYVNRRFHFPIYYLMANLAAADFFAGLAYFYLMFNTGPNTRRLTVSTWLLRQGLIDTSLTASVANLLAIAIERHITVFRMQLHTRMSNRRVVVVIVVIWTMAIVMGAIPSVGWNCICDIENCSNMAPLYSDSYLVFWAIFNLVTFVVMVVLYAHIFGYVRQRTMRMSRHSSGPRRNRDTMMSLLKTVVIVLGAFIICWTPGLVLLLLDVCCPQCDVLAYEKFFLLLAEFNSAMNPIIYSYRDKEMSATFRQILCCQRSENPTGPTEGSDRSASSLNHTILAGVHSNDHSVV

Row | Compound | pIC50
1 | Cc1nc(-c2nnn(C)c2CNc2nccc(-c3ccccn3)n2)ccc1OC1CCC2C(C(=O)O)C12 (mixture of isomers) [Example 48, (±)-(2R)-2-((2-Methyl-6-(1-methyl-54(4-(pyridin-2-yl)pyrimidin-2-yl)amino)methyl)-1H-1,2,3-triazol-4-yl)pyridin-3-yl)oxy)bicyclo[3.1.0]hexane-6-carboxylic Acid] | 6.80
2 | Cc1nc(-c2nnn(C)c2COC(=O)N(C)CC2CCC2)ccc1O[C@@H]1C[C@H]2C[C@H]2[C@H](C(=O)O)C1 (racemic) [Example 1, (±)-(1R,2R,4R,6R)-4-((6-(5-((((cyclobutylmethyl)(methyl)carbamoyl)oxy)methyl)-1-methyl-1H-1,2,3-triazol-4-yl)-2-methylpyridin-3-yl)oxy)bicyclo[4.1.0]heptane-2-carboxylic Acid] | 7.57
3 | Cc1nc(-c2nnn(C)c2COC(=O)N(C)CC2CCC2)ccc1O[C@H]1C[C@H]2C[C@H]2[C@H](C(=O)O)C1 (racemic) [Example 2, (±)-(1R,2R,4S,6R)-4-((6-(5-((((cyclobutylmethyl)(methyl)carbamoyl)oxy)methyl)-1-methyl-1H-1,2,3-triazol-4-yl)-2-methylpyridin-3-yl)oxy) bicyclo[4.1.0]heptane-2-carboxylic Acid] | 7.59
4 | Cc1nc(-c2nnn(C)c2COC(=O)N(C)CC2CCC2)ccc1O[C@H]1CC2C[C@H]2[C@@H](C(=O)O)C1 (mixture of isomers) [Example 7, (±)-(1R,2S,4S,6R)-4-((6-(5-((((cyclobutylmethyl)(methyl)carbamoyl)oxy)methyl)-1-methyl-1H-1,2,3-triazol-4-yl)-2-methylpyridin-3-yl)oxy)bicyclo[4.1.0]heptane-2-carboxylic Acid] | 7.40
5 | Cc1nc(-c2nnn(C)c2COC(=O)N(C)CC2CCC2)ccc1O[C@@H]1CCC[C@@]2(C(=O)O)C[C@@H]12 (racemic) [Example 10, (±)-(1R,5R,6R)-5-((6-(5-((((cyclobutylmethyl)(methyl)carbamoyl)oxy)methyl)-1-methyl-1H-1,2,3-triazol-4-yl)-2-methylpyridin-3-yl)oxy)bicyclo[4.1.0]heptane-1-carboxylic Acid] | 6.73
6 | CCCN(C)C(=O)OCc1c(-c2ccc(O[C@@H]3COC[C@@H](C(=O)O)C3)c(C)n2)nnn1C (racemic) [Example 17, (±)-trans-5-((2-methyl-6-(1-methyl-5-(((methyl(propyl)carbamoyl)oxy)methyl)-1H-1,2,3-triazol-4-yl)pyridin-3-yl)oxy)tetrahydro-2H-pyran-3-carboxylic Acid, TFA Salt] | 6.03
7 | CCCCCOC(=O)Nc1c(-c2ccc(O[C@H]3COC[C@H](C(=O)O)C3)c(C)n2)nnn1C (racemic) [Example 23, (±)-trans-5-((2-methyl-6-(1-methyl-5-(((pentyloxy)carbonyl)amino)-1H-1,2,3-triazol-4-yl)pyridin-3-yl)oxy)tetrahydro-2H-pyran-3-carboxylic Acid, TFA Salt] | 6.80
8 | Cc1nc(-c2nnn(C)c2Cn2nnc(CC3CCCC3)n2)ccc1O[C@@H]1COC[C@@H](C(=O)O)C1 (racemic) [Example 24, (±)-trans-5-((6-(5-((5-(cyclopentylmethyl)-2H-tetrazol-2-yl)methyl)-1-methyl-1H-1,2,3-triazol-4-yl)-2-methylpyridin-3-yl)oxy)tetrahydro-2H-pyran-3-Carboxylic Acid, TFA Salt] | 6.38
9 | Cc1nc(-c2nnn(C)c2COC(=O)N(C)CC2CCCC2)ccc1OC1COCC(C(=O)O)C1 (racemic) [Example 28, (±)-trans-5-((6-(5-((((cyclopentylmethyl)(methyl)carbamoyl)oxy)methyl)-1-methyl-1H-1,2,3-triazol-4-yl)-2-methylpyridin-3-yl)oxy)tetrahydro-2H-pyran-3-carboxylic Acid, TFA Salt] | 6.65
10 | Cc1nc(-c2nnn(C)c2CNc2noc(CCC3CCC3)n2)ccc1O[C@@H]1CCO[C@@H](C(=O)O)C1 (racemic) [Example 33, (±)-trans-4-((6-(5-(((5-(2-cyclobutylethyl)-1,2,4-oxadiazol-3-yl)amino)methyl)-1-methyl-1H-1,2,3-triazol-4-yl)-2-methylpyridin-3-yl)oxy)tetrahydro-2H-pyran-2-carboxylic Acid] | 6.58
11 | Cc1nc(-c2nnn(C)c2COC(=O)N(C)CC2CCC2)ccc1OC1CC[C@H]2C(C(=O)O)[C@@H]12 (mixture of isomers) [Example 41, (±)-(1S,2R,5R)-2-((6-(5-((((cyclobutylmethyl)(methyl)carbamoyl)oxy)methyl)-1-methyl-1H-1,2,3-triazol-4-yl)-2-methylpyridin-3-yl)oxy)bicyclo[3.1.0]hexane-6-carboxylic Acid] | 7.72
12 | Cc1nc(-c2nnn(C)c2CNC(=O)OCC2CCC2)ccc1O[C@@H]1CCC2C(C(=O)O)C21 (mixture of isomers) [Example 47, (±)-(2R)-2-((6-(5-((((cyclobutylmethoxy)carbonyl)amino)methyl)-1-methyl-1H-1,2,3-triazol-4-yl)-2-methylpyridin-3-yl)oxy)bicyclo[3.1.0]hexane-6-carboxylic Acid] | 6.72
13 | Cc1nc(-c2nnn(C)c2COC(=O)N(C)CC2CCC2)ccc1O[C@@H]1CC[C@H]2[C@@H](C(=O)O)[C@H]21 (racemic) [Example 49, (±)-(1S,2R,5R,6R)-2-((6-(5-((((Cyclobutylmethyl)(methyl)carbamoyl)oxy)methyl)-1-methyl-1H-1,2,3-triazol-4-yl)-2-methylpyridin-3-yl)oxy)bicyclo[3.1.0]hexane-6-carboxylic Acid] | 6.79
14 | Cc1nc(-c2nnn(C)c2CNc2nccc(OC3CC3)n2)ccc1OC1CC[C@H]2C(C(=O)O)[C@@H]12 (mixture of isomers) [Example 50, (±)-(1S,2R,5R,6R)-2-((6-(5-(((4-Cyclopropoxypyrimidin-2-yl)amino)methyl)-1-methyl-1H-1,2,3-triazol-4-yl)-2-methylpyridin-3-yl)oxy)bicyclo[3.1.0]hexane-6-carboxylic Acid] | 6.98
15 | CCCN(C)C(=O)OCc1c(-c2ccc(O[C@@H]3CC[C@H]4C(C(=O)O)[C@@H]34)c(C)n2)nnn1C (mixture of isomers) [Example 51, (±)-(1S,2R,5R,6R)-2-((2-methyl-6-(1-methyl-5-(((methyl(propyl)carbamoyl)oxy)methyl)-1H-1,2,3-triazol-4-yl)pyridin-3-yl)oxy)bicyclo[3.1.0]hexane-6-carboxylic Acid] | 6.14
16 | Cc1nc(-c2nnn(C)c2NC(=O)OCC2CC2)ccc1O[C@@H]1CC[C@H]2C(C(=O)O)[C@@H]12 (mixture of isomers) [Example 52, (±)-(1S,2R,5R,6R)-2-((6-(5-(((cyclopropylmethoxy)carbonyl)amino)-1-methyl-1H-1,2,3-triazol-4-yl)-2-methylpyridin-3-yl)oxy)bicyclo[3.1.0]hexane-6-carboxylic Acid] | 5.77
17 | CC(C)CN(C)C(=O)OCc1c(-c2ccc(O[C@@H]3CC[C@H]4C(C(=O)O)[C@@H]34)cn2)nnn1C (mixture of isomers) [Example 68, (±)-(1S,2R,5R,6R)-2-((6-(5-(((isobutyl(methyl)carbamoyl)oxy)methyl)-1-methyl-1H-1,2,3-triazol-4-yl)pyridin-3-yl)oxy)bicyclo[3.1.0]hexane-6-carboxylic Acid] | 6.62
18 | CCCN(C)C(=O)OCc1c(-c2ccc(O[C@@H]3CC[C@H]4C(C(=O)O)[C@@H]34)cn2)nnn1C (mixture of isomers) [Example 69] | 6.34
19 | CN(C(=O)OCc1c(-c2ccc(O[C@@H]3C[C@H](C(=O)O)C[C@@H]4C[C@@H]43)cn2)nnn1C)C1CCCC1 (racemic) [Example 72, (±)-(1 S,3R,5R,6S)-5-((6-(5-(((Cyclopentyl(methyl)carbamoyl)oxy)methyl)-1-methyl-1H-1,2,3-triazol-4-yl)pyridin-3-yl)oxy)bicyclo[4.1.0]heptane-3-carboxylic Acid] | 7.10
20 | CN(C(=O)OCc1c(-c2ccc(OC3CCCC4C(C(=O)O)C34)cn2)nnn1C)C1CCCC1 (racemic) [Example 74, (±)-2-((6-(5-(((Cyclopentyl(methyl)carbamoyl)oxy)methyl)-1-methyl-1H-1,2,3-triazol-4-yl)pyridin-3-yl)oxy)bicyclo[4.1.0]heptane-7-carboxylic Acid] | 7.22
21 | Cc1nc(-c2nnn(C)c2COC(=O)N(C)CC2CCC2)ccc1O[C@@H]1CC2C[C@H]2[C@H](C(=O)O)C1 (single isomer, unassigned) [Example 3] | 7.80
22 | Cc1nc(-c2nnn(C)c2COC(=O)N(C)CC2CCC2)ccc1O[C@H]1C[C@@H]2C[C@@H]2[C@@H](C(=O)O)C1 (single isomer, unassigned) [Example 4] | 6.04
23 | Cc1nc(-c2nnn(C)c2COC(=O)N(C)CC2CCC2)ccc1O[C@H]1CC2C[C@H]2[C@H](C(=O)O)C1 (single isomer, unassigned) [Example 5] | 7.55
24 | Cc1nc(-c2nnn(C)c2COC(=O)N(C)CC2CCC2)ccc1O[C@@H]1C[C@@H]2C[C@@H]2[C@@H](C(=O)O)C1 (single isomer, unassigned) [Example 6] | 6.25
25 | Cc1nc(-c2nnn(C)c2COC(=O)N(C)CC2CCC2)ccc1O[C@@H]1C[C@@H]2C[C@@H]2[C@H](C(=O)O)C1 (single isomer, unassigned) [Example 8] | 7.59

Source: patent US12435057B2, “Triazole carboxylic acids as LPA antagonists” (BRISTOL-MYERS SQUIBB COMPANY, priority 2019, dated 2025)
